From patent US9133146B2, “Benzodioxane inhibitors of leukotriene production” (Boehringer Ingelheim International GmbH, priority 2011, dated 2015)

Test system: synthesis of LTB4 in human whole blood
Test: human whole blood (HWB) assay, LTB4 production inhibition after calcimycin
Type: cell-based
Settings: heparinized human whole blood, calcimycin 20 μM, 37° C., plasma LTB4
Experimental: The compounds of the invention are additionally tested in a human whole blood (HWB) assay to determine their ability to inhibit the synthesis of LTB4 in a cellular system. Compounds are combined with heparinized human whole blood and incubated for 15 minutes at 37° C. Calcimycin (20 μM final, prepared in phosphate-buffered saline, pH 7.4) is then added and the mixture is incubated for another 30 minutes at 37° C. The samples are centrifuged for 5 min at low speed (1500×g) and the plasma layer is removed. Plasma LTB4 concentrations are then measured using an antibody-based homogenous time-resolved fluorescence method (CisBio, Bedford, Mass.). In general, the preferred potency range (IC50) of compounds in the HWB assay is between 10 nM to 10 μM, the more preferred potency range is 10 nM to 1 μM, and the most preferred potency range is 10 nM to 100 nM.

Compared with O[C@@H]1CCN(Cc2ccc(C3COc4ccccc4O3)cc2)C1 (mixture of isomers) [Example 9, (3S)-1-[4-(2,3-dihydro-1,4-benzodioxin-2-yl)benzyl]pyrrolidin-3-ol], CC(C)(O)C(=O)NC1CCN(Cc2ccc([C@H]3COc4ccccc4O3)cc2)CC1 [Example 220, N-(1-{4-[(2S)-2,3-dihydro-1,4-benzodioxin-2-yl]benzyl}piperidin-4-yl)-2-hydroxy-2-methylpropanamide] is 3.1-fold lower in IC50: 0.285 µM for the first, 0.0911 µM for the second. The second is the more potent here.

Going from c1ccc2c(c1)OC[C@H](c1ccc(CN3CCC[C@H]4CCCCC43)cc1)O2 (stereo in doubt) [Example 85, (4aR,8aS)-1-{4-[(2S)-2,3-dihydro-1,4-benzodioxin-2-yl]benzyl}decahydroquinoline] to c1cnc2c(c1)OC[C@H](c1ccc(CN3[C@H]4CC[C@@H]3CC4)cc1)O2 [Example 145, (3S)-3-{4-[(1s,4s)-7-azabicyclo[2.2.1]hept-7-ylmethyl]phenyl}-2,3-dihydro[1,4]dioxino[2,3-b]pyridine], the IC50 falls from 0.305 µM to 0.0284 µM (11-fold).
